Measured values taken from patent US20260325533A1, “CDK INHIBITOR COMPOUNDS” (ALEKSIA THERAPEUTICS, INC., priority 2023, published 2026).
Where two headings read alike, the source gives them in different places.

How the values were obtained:
Assay type in all cases: biochemical
[1] = target: CDK2/CCNE1 (Homo sapiens, UniProt P24941); assay: CDK2 homogeneous time-resolved fluorescence (HTRF) kinase assay; details: CDK2/CCNE
Outline: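 Compounds were titrated 11-point, half-log from typically 10 μM against 3 nM CDK2/cyclin E1 at 1 mM ATP, with a 20 min enzyme preincubation. Phosphorylation of 50 nM ULight-4E-BP1 peptide over 60 min at 23 °C was detected by europium anti-phospho antibody TR-FRET.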

[2] = target: CDK1/CCNB1 (Homo sapiens, UniProt P06493); assay: CDK1 homogeneous time-resolved fluorescence (HTRF) kinase assay; details: CDK1/CCNB
Outline: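 Read-out: TR-FRET (Eu anti-phospho-4E-BP1 Thr37/46 antibody, 2 nM; 665 nm or 665/615 ratio) after 60 min phosphorylation of 50 nM ULight-peptide by 0.5 nM CDK1/CCNB1 at 1 mM ATP, 23 °C. Compound preincubated 20 min with enzyme; 1% DMSO.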

[3] = target: CDK4/CCND3 (Homo sapiens, UniProt P11802); assay: CDK4 homogeneous time-resolved fluorescence (HTRF) kinase assay; details: CDK4/CCND
Outline: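 Inhibition of CDK4/CCND3 (1.5 nM) was measured at high ATP (1 mM) using 50 nM ULight-labelled 4E-BP1 Thr37/46 peptide; detection used 2 nM europium anti-phospho antibody after EDTA quench. IC50 values came from 11-point half-log titrations typically starting at 10 μM.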

[4] = target: CDK6/CCND1 (Homo sapiens, UniProt Q00534); assay: CDK6 homogeneous time-resolved fluorescence (HTRF) kinase assay; details: CDK6/CCND
Outline: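 1 nM enzyme, 1 mM ATP, 50 nM ULight-4E-BP1 (Thr37/46) peptide, 1% DMSO; 20 min compound preincubation, 60 min reaction, 23 °C. EDTA stop, 2 nM Eu-anti-phospho-4E-BP1 antibody 60 min. TR-FRET 665 nm (or 665/615 ratio); IC50 from 11-point half-log titration, top 10 μM.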

[5] = x = IC50 <25 nM, read-out: CDK2/CCNE IC50 (<25 nM)
[6] = x = IC50 >250 nM, read-out: CDK1/CCNB IC50 (>250 nM column)
[7] = x = IC50 >250 nM, read-out: CDK4/CCND IC50 (>250 nM column)
[8] = x = IC50 >250 nM, read-out: CDK6/CCND IC50 (>250 nM column)
[9] = x = IC50 25-250 nM, read-out: CDK6/CCND IC50 (25-250 nM)
[10] = x = IC50 25-250 nM, read-out: CDK1/CCNB IC50 (25-250 nM)
[11] = x = IC50 25-250 nM, read-out: CDK4/CCND IC50 (25-250 nM)
[12] = x = IC50 25-250 nM, read-out: CDK2/CCNE IC50 (25-250 nM)

Sequence of CDK6/CCND1 (Q00534 whole entry): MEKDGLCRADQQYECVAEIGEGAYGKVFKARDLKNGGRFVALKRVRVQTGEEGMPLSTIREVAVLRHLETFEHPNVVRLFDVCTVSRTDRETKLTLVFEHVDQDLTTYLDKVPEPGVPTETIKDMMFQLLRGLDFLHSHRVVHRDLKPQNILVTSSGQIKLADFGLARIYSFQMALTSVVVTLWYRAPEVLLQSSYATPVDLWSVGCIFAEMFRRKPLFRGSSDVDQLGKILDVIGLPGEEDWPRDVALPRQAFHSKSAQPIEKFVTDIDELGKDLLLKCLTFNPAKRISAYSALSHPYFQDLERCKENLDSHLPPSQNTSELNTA
Sequence of CDK6/CCND1 (P24385 whole entry partner): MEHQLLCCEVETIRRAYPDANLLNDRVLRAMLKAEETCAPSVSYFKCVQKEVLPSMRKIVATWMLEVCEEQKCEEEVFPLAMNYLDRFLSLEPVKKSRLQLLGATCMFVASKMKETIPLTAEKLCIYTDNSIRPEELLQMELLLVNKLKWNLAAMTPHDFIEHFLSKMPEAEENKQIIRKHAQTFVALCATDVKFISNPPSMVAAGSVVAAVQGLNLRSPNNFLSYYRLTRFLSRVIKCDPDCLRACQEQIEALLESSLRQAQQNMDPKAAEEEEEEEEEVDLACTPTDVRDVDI
Sequence of CDK1/CCNB1 (P06493 whole entry): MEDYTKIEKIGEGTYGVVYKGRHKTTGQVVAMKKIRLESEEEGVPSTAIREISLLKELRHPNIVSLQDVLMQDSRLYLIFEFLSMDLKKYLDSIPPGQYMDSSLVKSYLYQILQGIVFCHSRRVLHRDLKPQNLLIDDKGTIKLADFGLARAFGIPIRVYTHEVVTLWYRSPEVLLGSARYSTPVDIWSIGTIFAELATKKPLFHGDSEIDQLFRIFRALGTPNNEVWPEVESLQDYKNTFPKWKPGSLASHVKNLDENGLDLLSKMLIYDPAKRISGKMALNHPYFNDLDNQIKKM
Sequence of CDK1/CCNB1 (P14635 whole entry partner): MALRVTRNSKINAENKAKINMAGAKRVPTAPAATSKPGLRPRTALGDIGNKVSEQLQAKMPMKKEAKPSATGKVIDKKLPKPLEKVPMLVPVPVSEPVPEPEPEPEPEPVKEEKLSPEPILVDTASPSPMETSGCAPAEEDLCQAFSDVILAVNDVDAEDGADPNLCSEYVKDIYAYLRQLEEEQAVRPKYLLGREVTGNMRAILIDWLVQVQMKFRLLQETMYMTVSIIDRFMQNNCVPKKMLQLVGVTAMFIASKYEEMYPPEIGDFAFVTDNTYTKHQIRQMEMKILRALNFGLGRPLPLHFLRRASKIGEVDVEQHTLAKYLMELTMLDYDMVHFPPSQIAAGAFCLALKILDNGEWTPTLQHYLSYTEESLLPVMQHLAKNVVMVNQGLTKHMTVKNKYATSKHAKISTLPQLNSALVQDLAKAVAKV
Sequence of CDK4/CCND3 (P11802 whole entry): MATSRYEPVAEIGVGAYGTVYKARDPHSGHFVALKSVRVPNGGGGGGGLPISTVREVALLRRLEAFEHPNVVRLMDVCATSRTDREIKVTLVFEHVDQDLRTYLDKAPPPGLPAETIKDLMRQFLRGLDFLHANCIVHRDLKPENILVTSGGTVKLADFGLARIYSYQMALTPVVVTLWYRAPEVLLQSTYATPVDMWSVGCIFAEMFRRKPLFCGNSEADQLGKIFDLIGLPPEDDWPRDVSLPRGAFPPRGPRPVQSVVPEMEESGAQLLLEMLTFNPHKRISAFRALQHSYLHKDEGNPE
Sequence of CDK4/CCND3 (P30281 whole entry partner): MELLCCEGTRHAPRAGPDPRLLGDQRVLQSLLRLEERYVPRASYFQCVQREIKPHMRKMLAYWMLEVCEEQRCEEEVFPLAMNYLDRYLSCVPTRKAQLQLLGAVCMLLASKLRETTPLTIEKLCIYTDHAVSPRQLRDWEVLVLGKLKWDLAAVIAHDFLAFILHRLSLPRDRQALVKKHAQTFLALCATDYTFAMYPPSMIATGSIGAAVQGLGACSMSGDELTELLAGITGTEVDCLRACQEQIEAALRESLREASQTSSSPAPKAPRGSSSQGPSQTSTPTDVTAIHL

| Structure (SMILES) | IC50 [1, 5] [nM] | IC50 [2, 6] [nM] | IC50 [3, 7] [nM] | IC50 [4, 8] [nM] | IC50 ([2]; x = IC50 <25 nM, read-out: CDK1/CCNB IC50 (<25 nM)) [nM] | IC50 ([3]; x = IC50 <25 nM, read-out: CDK4/CCND IC50 (<25 nM)) [nM] | IC50 [4, 9] [nM] | IC50 [2, 10] [nM] | IC50 [3, 11] [nM] | IC50 [1, 12] [nM] |
| --- | --- | --- | --- | --- | --- | --- | --- | --- | --- | --- |
| Cc1cc(Nc2cc3c(C#Cc4ccc5c(c4)NC(=O)C5(C)C)nccc3cn2)ccc1S(C)(=O)=O [Example 406, 3,3-dimethyl-6-((7-((3-methyl-4-(methylsulfonyl)phenyl)amino)-2,6-naphthyridin-1-yl)ethynyl)indolin-2-one] | < 25 | > 250 | > 250 | > 250 |  |  |  |  |  |  |
| CC(C)NS(=O)(=O)c1ccc(Nc2cc3c(C#Cc4cccnc4N)nccc3cn2)cc1 [Example 421, 4-((5-((2-aminopyridin-3-yl)ethynyl)-2,6-naphthyridin-3-yl)amino)-N-isopropylbenzenesulfonamide] | < 25 | > 250 | > 250 | > 250 |  |  |  |  |  |  |
| CC1(C)C(=O)Nc2cc(C#Cc3nccc4cnc(Nc5ccc(S(C)(=O)=O)cc5)cc34)cnc21 [Example 436, 3,3-dimethyl-6-((7-((4-(methylsulfonyl)phenyl)amino)-2,6-naphthyridin-1-yl)ethynyl)-1,3-dihydro-2H-pyrrolo[3,2-b]pyridin-2-one] | < 25 | > 250 | > 250 | > 250 |  |  |  |  |  |  |
| CN1CCC(NS(=O)(=O)c2ccc(Nc3cc4c(C#Cc5ccc6c(c5)NC(=O)C6(C)C)nccc4cn3)cc2)CC1 [Example 441, 4-((5-((3,3-dimethyl-2-oxoindolin-6-yl)ethynyl)-2,6-naphthyridin-3-yl)amino)-N-(1-methylpiperidin-4-yl)benzenesulfonamide] | < 25 |  |  |  | < 25 | < 25 | 25 to 250 |  |  |  |
| CC1(C)C(=O)Nc2cc(C#Cc3nccc4cnc(Nc5ccc(S(C)(=O)=O)cc5)cc34)c(F)cc21 [Example 446, 5-fluoro-3,3-dimethyl-6-((7-((4-(methylsulfonyl)phenyl)amino)-2,6-naphthyridin-1-yl)ethynyl)indolin-2-one] | < 25 |  |  | > 250 |  |  |  | 25 to 250 | 25 to 250 |  |
| CNS(=O)(=O)c1ccc(Nc2cc3c(C#Cc4cccnc4N)nccc3cn2)c(C)c1 [Example 449, 4-((5-((2-aminopyridin-3-yl)ethynyl)-2,6-naphthyridin-3-yl)amino)-N,3-dimethylbenzenesulfonamide] | < 25 |  | > 250 | > 250 |  |  |  | 25 to 250 |  |  |
| Nc1ncccc1C#Cc1nccc2cnc(Nc3ccc(S(=O)(=O)Nc4nccc(N5CCOCC5)n4)cc3)cc12 [Example 464, 4-((5-((2-aminopyridin-3-yl)ethynyl)-2,6-naphthyridin-3-yl)amino)-N-(4-morpholinopyrimidin-2-yl)benzenesulfonamide] | < 25 | > 250 | > 250 | > 250 |  |  |  |  |  |  |
| Nc1ncccc1C#Cc1nccc2cnc(Nc3cnc(O)c(N4CCNCC4)c3)cc12 [Example 465, 5-((5-((2-aminopyridin-3-yl)ethynyl)-2,6-naphthyridin-3-yl)amino)-3-(piperazin-1-yl)pyridin-2-ol] |  | > 250 | > 250 | > 250 |  |  |  |  |  | 25 to 250 |
| Cc1cc(C)nc(NS(=O)(=O)c2ccc(Nc3cc4c(C#Cc5cccnc5N)nccc4cn3)cc2)n1 [Example 471, 4-((5-((2-aminopyridin-3-yl)ethynyl)-2,6-naphthyridin-3-yl)amino)-N-(4,6-dimethylpyrimidin-2-yl)benzenesulfonamide] | < 25 |  | > 250 | > 250 |  |  |  | 25 to 250 |  |  |
| Cc1c(C#Cc2nccc3cnc(Nc4ccc(S(C)(=O)=O)cc4)cc23)ccc2oc(=O)[nH]c12 [Example 472, 4-Methyl-5-((7-((4-(methylsulfonyl)phenyl)amino)-2,6-naphthyridin-1-yl)ethynyl)benzo[d]oxazol-2(3H)-one] | < 25 | > 250 | > 250 | > 250 |  |  |  |  |  |  |
| Nc1ncccc1C#Cc1nccc2cnc(Nc3ccc(S(N)(=O)=O)cc3)cc12 [Example 475, 4-((5-((2-aminopyridin-3-yl)ethynyl)-2,6-naphthyridin-3-yl)amino)benzenesulfonamide] | < 25 |  | > 250 | > 250 |  |  |  | 25 to 250 |  |  |
| CS(=O)(=O)c1ccc(Nc2cc3c(C#Cc4ccc5[nH]c(=O)oc5c4)nccc3cn2)cc1 [Example 476, 6-((7-((4-(methylsulfonyl)phenyl)amino)-2,6-naphthyridin-1-yl)ethynyl)benzo[d]oxazol-2(3H)-one] |  | > 250 | > 250 | > 250 |  |  |  |  |  | 25 to 250 |
| Cc1c(-c2nccc3cnc(Nc4ccc(S(C)(=N)=O)cc4)cc23)ccc2c1cnn2CC(O)(C(F)(F)F)C(F)(F)F (stereo not drawn) [Example 482, Imino(methyl)(4-((5-(4-methyl-1-(3,3,3-trifluoro-2-hydroxy-2-(trifluoromethyl)propyl)-1H-indazol-5-yl)-2,6-naphthyridin-3-yl)amino)phenyl)-λ^6-sulfanone] | < 25 | > 250 |  |  |  |  | 25 to 250 |  | 25 to 250 |  |
| CS(=O)(=O)c1ccc(Nc2cc3c(C#Cc4ccc(NC(=O)C5CC5)cc4)nccc3cn2)cc1 [Example 487, N-(4-((7-((4-(methylsulfonyl)phenyl)amino)-2,6-naphthyridin-1-yl)ethynyl)phenyl)cyclopropanecarboxamide] |  | > 250 | > 250 | > 250 |  |  |  |  |  | 25 to 250 |
| C[C@@H](C#Cc1nccc2cnc(Nc3ccc(S(C)(=O)=O)cc3)cc12)CO [Example 488, (S)-2-methyl-4-(7-((4-(methylsulfonyl)phenyl)amino)-2,6-naphthyridin-1-yl)but-3-yn-1-ol] | < 25 | > 250 |  |  |  |  | 25 to 250 |  | 25 to 250 |  |
| CS(=N)(=O)c1ccc(Nc2cc3c(C#Cc4cccnc4N)nccc3cn2)cc1 (stereo not drawn) [Example 490, (4-((5-((2-aminopyridin-3-yl)ethynyl)-2,6-naphthyridin-3-yl)amino)phenyl)(imino)(methyl)-λ^6-sulfanone] |  | > 250 | > 250 | > 250 |  |  |  |  |  | 25 to 250 |
| COC(=O)CCc1ccc(C#Cc2nccc3cnc(Nc4ccc(S(C)(=O)=O)cc4)cc23)cc1 [Example 493, methyl 3-(4-((7-((4-(methylsulfonyl)phenyl)amino)-2,6-naphthyridin-1-yl)ethynyl)phenyl)propanoate] |  | > 250 | > 250 | > 250 |  |  |  |  |  | 25 to 250 |
| CS(=O)(=O)c1ccc(Nc2cc3c(C#Cc4ccc(CCC(=O)O)cc4)nccc3cn2)cc1 [Example 494, 3-(4-((7-((4-(methylsulfonyl)phenyl)amino)-2,6-naphthyridin-1-yl)ethynyl)phenyl)propanoic acid] | < 25 | > 250 | > 250 | > 250 |  |  |  |  |  |  |
| CS(=O)(=O)c1ccc(Nc2cc3c(C#Cc4n[nH]c(=O)c5ccccc45)nccc3cn2)cc1 [Example 495, 4-((7-((4-(methylsulfonyl)phenyl)amino)-2,6-naphthyridin-1-yl)ethynyl) phthalazin-1(2H)-one] |  | > 250 | > 250 | > 250 |  |  |  |  |  | 25 to 250 |
| CS(=O)(=O)c1ccc(Nc2cc3c(C#Cc4n[nH]c5cnccc45)nccc3cn2)cc1 [Example 496, 5-((1H-pyrazolo[3,4-c]pyridin-3-yl)ethynyl)-N-(4-(methylsulfonyl)phenyl)-2,6-naphthyridin-3-amine] | < 25 | > 250 | > 250 | > 250 |  |  |  |  |  |  |
| CS(=O)(=O)c1ccc(Nc2cc3c(C#Cc4c(N)ncnc4Cl)nccc3cn2)cc1 [Example 510, 5-((4-amino-6-chloropyrimidin-5-yl)ethynyl)-N-(4-(methylsulfonyl)phenyl)-2,6-naphthyridin-3-amine] | < 25 | > 250 | > 250 | > 250 |  |  |  |  |  |  |
